# “And” between values parts separate entries of the source, which are not always exact repeats. Identical values can stand only once. Like-named read-outs stand apart in the source and are kept apart here.
# Columns and labels:
# Assay type in all cases: cell-based
# [1] = tested on: EOC 13.31 microglia cells; assay: Inhibition of NO release from microglia following 24 hours pretreatment (Example 10); settings: for inhibition at 50 µM: Microglia
# Outline: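 Confluent EOC 13.31 cells pretreated 24 hours with 50 μM compound (from 10 mM DMSO stock), then stimulated with 10 μg/ml LPS plus 10 ng/ml IFNγ without media change. After a further 48 hours, NO release was measured by Griess Reaction.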
# [2] = tested on: microglia; assay: Ranking of NO release inhibition (Example 12); settings: Microglia, ranking table
# Excerpt: The bis- and tris-dihydroxyaryl compounds were ranked in order of effectiveness for the inhibition of NO release as set out in Table 8.
# [3] = tested on: TNF-α release from microglia; assay: TNF-α release from LPS/IFNγ stimulated microglia, TNF-α ELISA (Example 11); settings: 50 uM compound, TNF-α release, 10 ug LPS and 10 ng IFNγ, 24 hours
# Outline: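 Microglia pretreated 1 h with 50 μM bis-/tris-dihydroxyaryl compound, then stimulated with 10 μg/ml LPS + 10 ng/ml IFNγ for 24 h. Medium sampled, stored at −80°, diluted 1:50 and TNF-α measured by ELISA.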
# [4] = tested on: Microglial cells; assay: Dose response inhibition of NO release from microglia, 0.5-500 μM (Example 9); settings: for inhibition at 0.5 µM / inhibition at 1 µM / inhibition at 100 µM / inhibition at 250 µM / inhibition at 500 µM / μM NO release / μM NO release (No LPS average subtracted) / % inhibition: 48 hours; for μM NO release / μM NO release (No LPS average subtracted): 3 replicates
# Outline: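 Cells seeded at 1×10^5 cells/ml and, after 48 h, stimulated with 10 ng/ml IFNγ plus 10 μg/ml LPS together with test compounds or L-NAME at 0.5–500 μM. NO release measured by Griess reaction after 48 h.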
compound,measurement,setting,value
"Oc1ccc(CNCc2ccc(O)c(O)c2)cc1O [Compound 73, bis(3,4-dihydroxybenzyl)amine]",μM NO release,"[1]; 50 uM pretreatment 24 hours, then LPS/IFNγ 48 hours, single replicates",0.000 µM
same,inhibition at 50 µM,"[1]; 50 uM pretreatment 24 hours, then LPS/IFNγ 48 hours, read-out: Avg % Inhibition",100%
same,inhibition at 50 µM,"[1]; 50 uM pretreatment 24 hours, then LPS/IFNγ 48 hours, single replicates, read-out: % inhibition",100%
same,inhibition at 50 µM,"[1]; 50 μM pretreatment, read-out: inhibition of NO release following pretreatment",> 75%
same,inhibition at 50 µM,[2],2%
same,% inhibition,"[3]; individual replicates, 50 µM",−51.44% and −31.47% and −54.79%
same,inhibition at 50 µM,"[3]; Microglia, 24 h, read-out: Avg % Inhibition",-45.9%
same,inhibition at 0.5 µM,"[4]; Microglia, 48 h, dose 0.5 μM, NO release, LPS/IFNγ, read-out: Avg % Inhibition",12.7%
same,inhibition at 0.5 µM,"[4]; Microglia, 48 h, dose 0.5 μM, individual replicates, NO release, LPS/IFNγ, read-out: % inhibition",15.5%
same,inhibition at 1 µM,"[4]; Microglia, 48 h, dose 1 μM, NO release, LPS/IFNγ, read-out: Avg % Inhibition",16.5%
same,inhibition at 1 µM,"[4]; Microglia, 48 h, dose 1 μM, individual replicates, NO release, LPS/IFNγ, read-out: % inhibition",17.7%
same,inhibition at 5 µM,"[4]; Microglia, 48 h, dose 5 μM, NO release, LPS/IFNγ",1.5%
same,inhibition at 10 µM,"[4]; Microglia, 48 h, dose 10 μM, NO release, LPS/IFNγ",1.75%
same,inhibition at 25 µM,"[4]; Microglia, 48 h, dose 25 μM, NO release, LPS/IFNγ",0.75%
same,inhibition at 50 µM,"[4]; Microglia, 48 h, dose 50 μM, NO release, LPS/IFNγ",0.25%
same,inhibition at 100 µM,"[4]; Microglia, 48 h, dose 100 μM, NO release, LPS/IFNγ, read-out: Avg % Inhibition",33%
same,inhibition at 100 µM,"[4]; Microglia, 48 h, dose 100 μM, individual replicates, NO release, LPS/IFNγ, read-out: % inhibition",31.2%
same,inhibition at 250 µM,"[4]; Microglia, 48 h, dose 250 μM, NO release, LPS/IFNγ, read-out: Avg % Inhibition",45.3%
same,inhibition at 250 µM,"[4]; Microglia, 48 h, dose 250 μM, individual replicates, NO release, LPS/IFNγ, read-out: % inhibition",46.7%
same,inhibition at 500 µM,"[4]; Microglia, 48 h, dose 500 μM, NO release, LPS/IFNγ, read-out: Avg % Inhibition",72.3%
same,inhibition at 500 µM,"[4]; Microglia, 48 h, dose 500 μM, individual replicates, NO release, LPS/IFNγ, read-out: % inhibition",72.6%
same,inhibition at 500 µM,"[4]; Microglia, 48 h, highest concentration tested (500 μM), read-out: inhibited NO release by",72%
same,μM NO release,"[4]; dose 0.5 μM, LPS/IFNγ",17.361 µM and 18.194 µM and 18.056 µM
same,μM NO release (No LPS average subtracted),"[4]; dose 0.5 μM, LPS/IFNγ",15.66 µM and 16.49 µM and 16.36 µM
same,% inhibition,"[4]; dose 0.5 μM, individual replicates, NO release, LPS/IFNγ",10.99% and 11.74%
same,μM NO release,"[4]; dose 1 μM, LPS/IFNγ",16.944 µM and 16.806 µM and 17.778 µM
same,μM NO release (No LPS average subtracted),"[4]; dose 1 μM, LPS/IFNγ",15.25 µM and 15.11 µM and 16.08 µM
same,% inhibition,"[4]; dose 1 μM, individual replicates, NO release, LPS/IFNγ",18.49% and 13.25%
same,μM NO release,"[4]; dose 5 μM, LPS/IFNγ",20.000 µM and 19.583 µM and 20.278 µM
same,μM NO release (No LPS average subtracted),"[4]; dose 5 μM, LPS/IFNγ",18.30 µM and 17.88 µM and 18.58 µM
same,% inhibition,"[4]; dose 5 μM, individual replicates, NO release, LPS/IFNγ",1.25% and 3.50% and −0.25%
same,μM NO release,"[4]; dose 10 μM, LPS/IFNγ",18.889 μM and 20.417 μM (2×)
same,μM NO release (No LPS average subtracted),"[4]; dose 10 μM, LPS/IFNγ",17.19 μM and 18.72 μM (2×)
same,% inhibition,"[4]; dose 10 μM, individual replicates, NO release, LPS/IFNγ",7.24% and −1.00% (2×)
same,μM NO release,"[4]; dose 25 μM, LPS/IFNγ",19.167 µM and 20.139 µM and 20.972 µM
same,μM NO release (No LPS average subtracted),"[4]; dose 25 μM, LPS/IFNγ",17.47 µM and 18.44 µM and 19.27 µM
same,% inhibition,"[4]; dose 25 μM, individual replicates, NO release, LPS/IFNγ",5.75% and 0.50% and −4.00%
same,μM NO release,"[4]; dose 50 μM, LPS/IFNγ",19.444 µM and 19.861 µM and 21.250 µM
same,μM NO release (No LPS average subtracted),"[4]; dose 50 μM, LPS/IFNγ",17.74 µM and 18.16 µM and 19.55 µM
same,% inhibition,"[4]; dose 50 μM, individual replicates, NO release, LPS/IFNγ",4.25% and 2.00% and −5.50%
same,μM NO release,"[4]; dose 100 μM, LPS/IFNγ",14.444 µM and 13.056 µM and 14.861 µM
same,μM NO release (No LPS average subtracted),"[4]; dose 100 μM, LPS/IFNγ",12.74 µM and 11.36 µM and 13.16 µM
same,% inhibition,"[4]; dose 100 μM, individual replicates, NO release, LPS/IFNγ",38.72% and 28.98%
same,μM NO release,"[4]; dose 250 μM, LPS/IFNγ",11.569 µM and 10.904 µM and 13.056 µM
same,μM NO release (No LPS average subtracted),"[4]; dose 250 μM, LPS/IFNγ",9.87 µM and 9.20 µM and 11.36 µM
same,% inhibition,"[4]; dose 250 μM, individual replicates, NO release, LPS/IFNγ",50.33% and 38.72%
same,μM NO release,"[4]; dose 500 μM, LPS/IFNγ",6.782 µM and 6.516 µM and 7.181 µM
same,μM NO release (No LPS average subtracted),"[4]; dose 500 μM, LPS/IFNγ",5.08 µM and 4.82 µM and 5.48 µM
same,% inhibition,"[4]; dose 500 μM, individual replicates, NO release, LPS/IFNγ",74.01% and 70.42%

# From patent US20070208087A1, “Compounds, compositions and methods for the treatment of inflammatory diseases” (priority 2001, published 2007)
